Measured values: US8932597B2 (priority 2008, dated 2015)

What follows are substances tested on anti-M2 human monoclonal antibody Z3G1.
Format: binding

Substance | Signal (peptides that bind to Z3G1)
1442 (CLTEVETPIRLLTEVETPICLTEVETPIR; epitope peptide; MISC_FEATURE (1)..(1): C is an attachment site for a CLIP; MISC_FEATURE (10)..(10): R is an attachment site for a CLIP; MISC_FEATURE (11)..(11): L is an attachment site for a CLIP; MISC_FEATURE (29)..(29): R is an attachment site for a CLIP) [compound 1442] | 2057
1443 (CTEVETPIRNLLTEVETPICLTEVETPIR; epitope peptide; MISC_FEATURE (1)..(1): C is an attachment site for a CLIP; MISC_FEATURE (10)..(10): N is an attachment site for a CLIP; MISC_FEATURE (11)..(11): L is an attachment site for a CLIP; MISC_FEATURE (29)..(29): R is an attachment site for a CLIP) [compound 1443] | 2213
1444 (CEVETPIRNELLTEVETPICLTEVETPIR; epitope peptide; MISC_FEATURE (1)..(1): C is an attachment site for a CLIP; MISC_FEATURE (10)..(10): E is an attachment site for a CLIP; MISC_FEATURE (11)..(11): L is an attachment site for a CLIP; MISC_FEATURE (29)..(29): R is an attachment site for a CLIP) [compound 1444] | 2000
1445 (CVETPIRNEWLLTEVETPICLTEVETPIR; epitope peptide; MISC_FEATURE (1)..(1): C is an attachment site for a CLIP; MISC_FEATURE (10)..(10): W is an attachment site for a CLIP; MISC_FEATURE (11)..(11): L is an attachment site for a CLIP; MISC_FEATURE (29)..(29): R is an attachment site for a CLIP) [compound 1445] | 2280
1446 (CETPIRNEWGLLTEVETPICLTEVETPIR; epitope peptide; MISC_FEATURE (1)..(1): C is an attachment site for a CLIP; MISC_FEATURE (10)..(10): G is an attachment site for a CLIP; MISC_FEATURE (11)..(11): L is an attachment site for a CLIP; MISC_FEATURE (29)..(29): R is an attachment site for a CLIP) [compound 1446] | 2367
1458 (CLTEVETPIRLLTEVETPICTEVETPIRN; epitope peptide; MISC_FEATURE (1)..(1): C is an attachment site for a CLIP; MISC_FEATURE (10)..(10): R is an attachment site for a CLIP; MISC_FEATURE (11)..(11): L is an attachment site for a CLIP; MISC_FEATURE (29)..(29): N is an attachment site for a CLIP) [compound 1458] | 1756
1459 (CTEVETPIRNLLTEVETPICTEVETPIRN; epitope peptide; MISC_FEATURE (1)..(1): C is an attachment site for a CLIP; MISC_FEATURE (10)..(10): N is an attachment site for a CLIP; MISC_FEATURE (11)..(11): L is an attachment site for a CLIP; MISC_FEATURE (29)..(29): N is an attachment site for a CLIP) [compound 1459] | 1749
1460 (CEVETPIRNELLTEVETPICTEVETPIRN; epitope peptide; MISC_FEATURE (1)..(1): C is an attachment site for a CLIP; MISC_FEATURE (10)..(10): E is an attachment site for a CLIP; MISC_FEATURE (11)..(11): L is an attachment site for a CLIP; MISC_FEATURE (29)..(29): N is an attachment site for a CLIP) [compound 1460] | 1620
1461 (CVETPIRNEWLLTEVETPICTEVETPIRN; epitope peptide; MISC_FEATURE (1)..(1): C is an attachment site for a CLIP; MISC_FEATURE (10)..(10): W is an attachment site for a CLIP; MISC_FEATURE (11)..(11): L is an attachment site for a CLIP; MISC_FEATURE (29)..(29): N is an attachment site for a CLIP) [compound 1461] | 1835
1462 (CETPIRNEWGLLTEVETPICTEVETPIRN; epitope peptide; MISC_FEATURE (1)..(1): C is an attachment site for a CLIP; MISC_FEATURE (10)..(10): G is an attachment site for a CLIP; MISC_FEATURE (11)..(11): L is an attachment site for a CLIP; MISC_FEATURE (29)..(29): N is an attachment site for a CLIP) [compound 1462] | 1710
1473 (CEVETPIRNESLLTEVETPCEVETPIRNE; epitope peptide; MISC_FEATURE (1)..(1): C is an attachment site for a CLIP; MISC_FEATURE (10)..(10): E is an attachment site for a CLIP; MISC_FEATURE (11)..(11): S is an attachment site for a CLIP; MISC_FEATURE (29)..(29): E is an attachment site for a CLIP) [compound 1473] | 2006
1474 (CVETPIRNEWSLLTEVETPCEVETPIRNE; epitope peptide; MISC_FEATURE (1)..(1): C is an attachment site for a CLIP; MISC_FEATURE (10)..(10): W is an attachment site for a CLIP; MISC_FEATURE (11)..(11): S is an attachment site for a CLIP; MISC_FEATURE (29)..(29): E is an attachment site for a CLIP) [compound 1474] | 1986
1475 (CETPIRNEWGSLLTEVETPCEVETPIRNE; epitope peptide; MISC_FEATURE (1)..(1): C is an attachment site for a CLIP; MISC_FEATURE (10)..(10): G is an attachment site for a CLIP; MISC_FEATURE (11)..(11): S is an attachment site for a CLIP; MISC_FEATURE (29)..(29): E is an attachment site for a CLIP) [compound 1475] | 2642
1478 (CLTEVETPIRLLTEVETPICEVETPIRNE; epitope peptide; MISC_FEATURE (1)..(1): C is an attachment site for a CLIP; MISC_FEATURE (10)..(10): R is an attachment site for a CLIP; MISC_FEATURE (11)..(11): L is an attachment site for a CLIP; MISC_FEATURE (29)..(29): E is an attachment site for a CLIP) [compound 1478] | 1681
1479 (CTEVETPIRNLLTEVETPICEVETPIRNE; epitope peptide; MISC_FEATURE (1)..(1): C is an attachment site for a CLIP; MISC_FEATURE (10)..(10): N is an attachment site for a CLIP; MISC_FEATURE (11)..(11): L is an attachment site for a CLIP; MISC_FEATURE (29)..(29): E is an attachment site for a CLIP) [compound 1479] | 1627
1480 (CEVETPIRNELLTEVETPICEVETPIRNE; epitope peptide; MISC_FEATURE (1)..(1): C is an attachment site for a CLIP; MISC_FEATURE (10)..(10): E is an attachment site for a CLIP; MISC_FEATURE (11)..(11): L is an attachment site for a CLIP; MISC_FEATURE (29)..(29): E is an attachment site for a CLIP) [compound 1480] | 1394
1481 (CVETPIRNEWLLTEVETPICEVETPIRNE; epitope peptide; MISC_FEATURE (1)..(1): C is an attachment site for a CLIP; MISC_FEATURE (10)..(10): W is an attachment site for a CLIP; MISC_FEATURE (11)..(11): L is an attachment site for a CLIP; MISC_FEATURE (29)..(29): E is an attachment site for a CLIP) [compound 1481] | 1592
1482 (CETPIRNEWGLLTEVETPICEVETPIRNE; epitope peptide; MISC_FEATURE (1)..(1): C is an attachment site for a CLIP; MISC_FEATURE (10)..(10): G is an attachment site for a CLIP; MISC_FEATURE (11)..(11): L is an attachment site for a CLIP; MISC_FEATURE (29)..(29): E is an attachment site for a CLIP) [compound 1482] | 1648
1494 (CLTEVETPIRLLTEVETPICVETPIRNEW; epitope peptide; MISC_FEATURE (1)..(1): C is an attachment site for a CLIP; MISC_FEATURE (10)..(10): R is an attachment site for a CLIP; MISC_FEATURE (11)..(11): L is an attachment site for a CLIP; MISC_FEATURE (29)..(29): W is an attachment site for a CLIP) [compound 1494] | 2443
1495 (CTEVETPIRNLLTEVETPICVETPIRNEW; epitope peptide; MISC_FEATURE (1)..(1): C is an attachment site for a CLIP; MISC_FEATURE (10)..(10): N is an attachment site for a CLIP; MISC_FEATURE (11)..(11): L is an attachment site for a CLIP; MISC_FEATURE (29)..(29): W is an attachment site for a CLIP) [compound 1495] | 2088
